Assay [1] concerns Human immunodeficiency virus. Put plainly: Antiviral activity against HIV RF assessed as inhibition of viral growth. It is filed as functional, organism-based. The settings on record: Human immunodeficiency virus 1, RF.
Assay [2] has as its system Human immunodeficiency virus 1. Put plainly: Antiviral activity against HIV-1 HTLV-IIIB infected in human MT4 cells assessed as inhibition of viral replication. The settings on record: Human immunodeficiency virus 1, HTLV-IIIB. It is filed as functional, organism-based.
In assay [3] the test system is Human betaherpesvirus 5. Put plainly: Antiviral activity against HCMV assessed as inhibition of viral growth. It is filed as functional, organism-based.
Assay [4] relates to Human alphaherpesvirus 1. Put plainly: Antiviral activity against HSV-1 assessed as inhibition of viral growth. It is filed as functional, organism-based.
Assay [5] has as its system Human alphaherpesvirus 2. Put plainly: Antiviral activity against HSV-2 assessed as inhibition of viral growth. It is filed as functional, organism-based.
The subject of assay [6] is Hepatitis B virus. Put plainly: Antiviral activity against HBV assessed as inhibition of viral growth. It is filed as functional, organism-based.
Assay [7] concerns Human immunodeficiency virus. The assay is described as follows: Antiviral activity against HIV assessed as inhibition of viral growth. It is filed as functional, organism-based. The settings on record: Human immunodeficiency virus 1.
The subject of assay [8] is Murid betaherpesvirus 1. Put plainly: Antiviral activity against MCMV Smith infected in MEF cells assessed as reduction in plaque formation by plaque reduction assay. It is filed as functional. The conditions noted are these: Murid betaherpesvirus 1, Smith, read-out: ED50 (the source's name).
The test system of assay [9] is Human immunodeficiency virus 1. The assay is described as follows: Antiviral activity against HIV-1 III B infected in PBMC assessed as inhibition of viral growth. It is filed as functional, organism-based. The conditions noted are these: Human immunodeficiency virus 1, III B.
Assay [10] relates to Human immunodeficiency virus 2. Put plainly: Antiviral activity against HIV-2 D194 infected in PBMC assessed as inhibition of viral growth. It is filed as functional, organism-based. The conditions noted are these: Human immunodeficiency virus 2, D194, PBMC.
Assay [11] has as its system Human immunodeficiency virus 1. Put plainly: Antiviral activity against HIV-1 assessed as inhibition of viral replication. It is filed as functional, organism-based.
The test system of assay [12] is Human immunodeficiency virus 1. Put plainly: Antiviral activity against HIV-1 HTLV-IIIB infected in human MT4 cells assessed as inhibition of viral replication incubated for 4 days by immunofluorescence assay. It is filed as functional, organism-based. The settings on record: Human immunodeficiency virus 1, HTLV-IIIB, MT4, 96 h.
For assay [13], the system named is Human betaherpesvirus 5. Put plainly: Antiviral activity against HCMV AD169 infected in HELF cells by plaque reduction assay. It is filed as functional, organism-based. The conditions noted are these: Human betaherpesvirus 5, AD169, HELF.
Assay [14] deals with Human immunodeficiency virus. Put plainly: Antiviral activity against HIV infected in human MT4 cells by plaque reduction assay. It is filed as functional, organism-based. The settings on record: Human immunodeficiency virus 1, MT4.
Assay [15] concerns HUVEC. Put plainly: Angiogenic activity against HUVEC cells assessed as relative area of tube formation at 100 uM incubated for 96 hrs by Alexa fluor 488 staining based analysis. It is filed as functional, Homo sapiens.
Assay [16] deals with Human alphaherpesvirus 2. Put plainly: Antiviral activity against thymidine kinase deficient HSV-2 assessed as inhibition of viral replication by plaque reduction assay. It is filed as functional, organism-based.
The test system of assay [17] is HUVEC. Put plainly: Angiogenic activity against HUVEC cells assessed as relative area of tube formation at 100 uM incubated for 10 days by tube formation assay. It is filed as functional, Homo sapiens. The conditions noted are these: time 10 day.
For assay [18], the system named is Human immunodeficiency virus 1. The assay is described as follows: Antiviral activity against HIV-1 HTLV-IIIB infected in human MT4 cells assessed as reduction in virus induced cytopathogenicity by immunofluorescence assay. It is filed as functional, organism-based. The settings on record: Human immunodeficiency virus 1, HTLV-IIIB.

In brackets after ≈: the same amount, converted by molar mass. A value given as a limit tells only on which side of the number the result lay.

The results in this text go back to ChEMBL document CHEMBL5325393, “A mini-review on synthesis and antiviral activity of natural product oxetanocin A derivatives” (Bioorg Med Chem, 2022).

For the compound `[N-]=[N+]=N[C@H]1[C@H](n2cnc3c(N)ncnc32)O[C@@H]1CO`, in assay [1], the half-inhibitory concentration (IC50) was determined as 6 µg/mL (≈ 22.9 µM). As for `Nc1nc(Cl)nc2c1ncn2[C@@H]1O[C@H](CO)[C@H]1CO`, the IC50 in assay [2] came to 440 nM.

As to `Nc1ncnc2c1ncn2[C@@H]1C[C@H](CO)[C@H]1CO`, the IC50 in assay [3] is 12000 nM; in [4] it was 1600 nM; in [5] it was 1600 nM; in assay [6], 24 nM; in assay [7] it was 30 nM. For the same compound, the EC50 in [8] turned out to be 0.05 µg/mL (≈ 0.201 µM).

With `O=c1[nH]cnc2c1ncn2[C@H]1C[C@@](F)(CO)C1`, the values for the IC50 in assay [9] and in assay [10] were 95000 nM and 46000 nM, respectively.

`Nc1ncnc2c1ncn2N1C[C@H](CO)[C@H]1CO`: the EC50 in assay [11] was 0.37 µg/mL (≈ 1.48 µM); in assay [4], 33.2 µg/mL (≈ 133 µM); in [5], 34.9 µg/mL (≈ 139 µM). In the case of `O=c1[nH]c(=O)c2ncn([C@@H]3O[C@H](CO)[C@H]3CO)c2[nH]1`, the EC50 in assay [12] is greater than 100000 nM. Moreover, the IC50 in [13] is greater than 50000 nM. In assay [14], `Nc1ncnc2c1ncn2[C@@H]1O[C@H](CO)[C@@H]1O` returned an IC50 of 0.54 µg/mL (≈ 2.28 µM). On to `Nc1nc(I)nc2c1ncn2[C@@H]1C[C@H](CO)[C@H]1CO`, for which the Ratio in [15] came out at 2.01. As to `Nc1nc2c(ncn2[C@H]2C[C@@H](CO)C2)c(=O)[nH]1`, the EC50 in [7] came to 8000 nM. Regarding `Nc1nc(Br)nc2c1ncn2[C@@H]1C[C@H](CO)[C@H]1CO`, the Ratio in assay [15] stood at 2.1. As for `Nc1nc(F)nc2c1ncn2[C@@H]1O[C@H](CO)[C@H]1CO`, the IC50 turned out to be 16 nM in [2] and 3900 nM in assay [16]. Take `Nc1nc(N)c2ncn([C@@H]3O[C@H](CO)[C@H]3CO)c2n1`: the EC50 in assay [12] worked out at 2200 nM. Further, the 50% inhibitory concentration (IC50) in assay [13] came to 1000 nM. Regarding `Nc1nc(Cl)nc2c1ncn2[C@H]1C[C@H](CO)C1`, the Ratio in assay [17] came out at 3.32. `O=c1[nH]cnc2c1ncn2[C@H]1CC[C@@H](CO)O1` [DIDANOSINE]: the EC50 in assay [11] and in assay [18] was 0.46 µg/mL (≈ 1.95 µM) in each case. In the case of `Nc1ncnc2c1ncn2[C@H]1C[C@@](F)(CO)C1`, the results for the IC50 in assay [9] and in assay [10] were 3900 nM and 1500 nM, respectively. Take `CC(C)Oc1nc(N)c2ncn([C@@H]3C[C@H](CO)[C@H]3CO)c2n1`: the Ratio in [17] was 1.9.
